Peptide text beside a SMILES is read from it. * marks the point of attachment. Cbz = O=C(OCc1ccccc1)*

For the assay, the target named is T1, human tau (hTau) (Homo sapiens, UniProt P10636).
T1 construct: expressed in transfected cells
In words: Tau clearance in HEK293-hTau cells by Western blotting. The class given is cell-based. To be noted: HEK293-hTau cells; 10 μM MG132 with 20 μM C004019; 24 h. On the procedure:
SH-SY5Y human neuroblastoma cells were cultured in 90% DME/F-12 medium (HyClone, SH30023.01) with 10% fetal bovine serum (FBS) (Biological Industries, 04-001-1ACS) and penicillin (100 U/mL)/ streptomycin (100 μg/mL) in a 37 °C incubator with humidified atmosphere of 5% CO2. Human embryonic kidney 293 cells (HEK293) or HEK293 with stable expression of wild-type full-length human tau (termed as HEK293-hTau) were cultured in 90% DMEM/High Glucose medium (HyClone, SH30022.01) containing 10% FBS and 200 μg/mL G418 (ThermoFisher Scientific, 10131027), in a humidified atmosphere of 5% CO2 at 37 °C. Neofect (DNA transfection reagent, TF20121201) was used for plasmids transfection. The cells were placed onto 6-well or 12-well plates. Plasmids (EGFP-hTau or 3xFlag-hTau or the vector), neofect and Opti-MEM medium (Gibco, 31985-070) were made into a mixture in a ratio of 1 μg: 1 μL : 100 μL and then added into each well of the plate. To inhibit proteasome activity, HEK293-hTau cells were cultured with DMEM/High medium containing 20 μM C004019 with or without 10 μM MG132, or the same volume of vehicle (DMSO) for 24 h at 37 °C. To induce tau hyperphosphorylation, SH-SY5Y cells were cultured with DME/F-12 medium containing 10 μM C004019 with or without 1 μM GFX and 1 μM WO for 24 h at 37 °C.
The cells or hippocampal/cortex tissues were homogenized for ~ 30 min on ice in buffer [50 mM Tris·HCl pH 7.4-7.5, 100 mM NaCl, 1% (vol/vol) Triton X-100, 5 mM EDTA, 1:100 PMSF, 1:1,000 protease inhibitor cocktail containing 4-(2-Aminoethyl)-benzenesulfonyl fluoride hydrochloride, aprotinin, bestatin, leupeptin, E-64, and pepstatin A stored at 4 °C], and then centrifuged at 12,000 × g at 4 °C for 20 min. The supernatant was collected and the protein levels were analyzed using bicinchoninic acid (BCA, KF016, Sigma-Aldrich) by following the manufacturer's instruction (served as soluble protein). The pellet was further incubated with 8% (wt/vol) SDS buffer at 4 °C and then treated by ultrasonic wave to reach a complete resuspension. […] Immunoreactive bands were quantitatively analyzed by Image J2x software.
(Immunoblotting shows a protein as a band on a membrane.)

T1 sequence (P10636 1-441 isoform P10636-8): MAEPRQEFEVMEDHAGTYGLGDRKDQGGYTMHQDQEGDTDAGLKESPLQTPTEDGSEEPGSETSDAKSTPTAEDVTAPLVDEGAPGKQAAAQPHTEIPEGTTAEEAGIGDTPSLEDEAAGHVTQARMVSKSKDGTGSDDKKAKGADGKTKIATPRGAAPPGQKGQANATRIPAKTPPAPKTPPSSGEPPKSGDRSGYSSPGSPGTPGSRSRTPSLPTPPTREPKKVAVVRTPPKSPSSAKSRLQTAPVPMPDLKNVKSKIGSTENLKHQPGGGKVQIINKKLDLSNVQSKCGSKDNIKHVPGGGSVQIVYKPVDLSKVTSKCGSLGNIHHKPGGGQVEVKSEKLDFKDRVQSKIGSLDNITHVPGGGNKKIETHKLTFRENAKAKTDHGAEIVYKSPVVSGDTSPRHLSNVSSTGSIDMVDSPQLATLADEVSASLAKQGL

Consider `CC(C)C[C@@H](C=O)NC(=O)[C@H](CC(C)C)NC(=O)[C@H](CC(C)C)NC(=O)OCc1ccccc1` [MG132, reference compound] (Cbz-Leu-Leu-Leu-aldehyde), for which the “effect on C004019-induced clearance of tau (proteasome inhibition)” value is given as “abolished”.
